pEC50, pIC50: −log10 of the molar value. ≈ marks a conversion by molar mass, not a printed value. Where “and” joins values, the source holds several entries; their conditions need not be identical. Equal values may be shown once. Read-outs that look alike come from different tables or passages of the source.
How the values were obtained:
[1] = tested on: E. faecium VRE (ATCC 51559); assay: MIC susceptibility testing; type: cell-based, Enterococcus faecium; conditions: for MIC: Enterococcus faecium, read-out: (I) E. faecium (ATCC 51559) MIC
Excerpt: Media and culture conditions. Mueller Hinton broth (MHB), cation adjusted Mueller Hinton broth (CA-MHB), and Brain Heart Infusion broth (BHI) were purchased from Becton Dickinson (Franklin Lakes, N.J.). Tryptic soy agar (TSA) plates, TSA with 5% sheep blood plates, and CA-MHB with 3% laked horse blood were purchased from Remel (San Diego, Calif.). MHB was used to assay all Staphylococcus aureus strains. CA-MHB was used for Staphylococcus epidermidis, Enterococcus faecalis, Enterococcus faecium, Escherichia coli, and Pseudomonas aeruginosa. CA-MHB supplemented with 3% laked horse blood was used for Streptococcus pneumoniae and Streptococcus pyogenes. Staphylococcus, Enterococcus, Escherichia, and Pseudomonas strains were cultured at 37° C. with ambient air. Streptococcus strains were cultured in 37° C. with 5% CO2. Separate conditions for radiolabeled precursor uptake assays are described below.
Susceptibility testing: Minimum inhibitory concentration (MIC) determinations were performed in triplicate in 96-well round bottom microtiter plates (Corning, Corning N.Y.) as described by the Clinical and Laboratory Standards Institute (CLSI). Serial two-fold dilutions of compounds were added to plates in 50 μL volumes. An additional 50 μL of media containing bacterial cells (1×10^6 CFUs/mL) was then added to each well. Maximum DMSO concentrations were 0.5%. Plates were incubated at 37° C. for at least 18 h before reading the susceptibility result by optical absorbance (OD600) using a BioTek ELx800. The lowest concentration causing ≥90% growth inhibition compared to the untreated control was recorded as the MIC (and also corresponded to the visual MIC). MICs were measured at least twice and the higher value (if different) was recorded herein.

[2] = tested on: S. aureus MSSA (ATCC 29213); assay: MIC susceptibility testing; type: cell-based, Staphylococcus aureus; conditions: for MIC: Staphylococcus aureus, read-out: (F) S. aureus (ATCC 29213) MIC
[3] = tested on: S. aureus MRSA (ATCC 33591); assay: MIC susceptibility testing; type: cell-based, Staphylococcus aureus; conditions: for MIC: Staphylococcus aureus, read-out: (G) MRSA (ATCC33591) MIC
How it was run: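 CLSI broth microdilution in triplicate, 5×10^5 CFU/mL final, ≤0.5% DMSO; MHB for S. aureus, CA-MHB for E. coli and E. faecium, CA-MHB plus 3% laked horse blood for S. pyogenes (5% CO2).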

[4] = biological target: T1, MetRS (T. brucei) (Trypanosoma brucei brucei, UniProt Q38C91); assay: MetRS (T. brucei) enzyme inhibition; type: biochemical
T1 sequence (Q38C91 1-773): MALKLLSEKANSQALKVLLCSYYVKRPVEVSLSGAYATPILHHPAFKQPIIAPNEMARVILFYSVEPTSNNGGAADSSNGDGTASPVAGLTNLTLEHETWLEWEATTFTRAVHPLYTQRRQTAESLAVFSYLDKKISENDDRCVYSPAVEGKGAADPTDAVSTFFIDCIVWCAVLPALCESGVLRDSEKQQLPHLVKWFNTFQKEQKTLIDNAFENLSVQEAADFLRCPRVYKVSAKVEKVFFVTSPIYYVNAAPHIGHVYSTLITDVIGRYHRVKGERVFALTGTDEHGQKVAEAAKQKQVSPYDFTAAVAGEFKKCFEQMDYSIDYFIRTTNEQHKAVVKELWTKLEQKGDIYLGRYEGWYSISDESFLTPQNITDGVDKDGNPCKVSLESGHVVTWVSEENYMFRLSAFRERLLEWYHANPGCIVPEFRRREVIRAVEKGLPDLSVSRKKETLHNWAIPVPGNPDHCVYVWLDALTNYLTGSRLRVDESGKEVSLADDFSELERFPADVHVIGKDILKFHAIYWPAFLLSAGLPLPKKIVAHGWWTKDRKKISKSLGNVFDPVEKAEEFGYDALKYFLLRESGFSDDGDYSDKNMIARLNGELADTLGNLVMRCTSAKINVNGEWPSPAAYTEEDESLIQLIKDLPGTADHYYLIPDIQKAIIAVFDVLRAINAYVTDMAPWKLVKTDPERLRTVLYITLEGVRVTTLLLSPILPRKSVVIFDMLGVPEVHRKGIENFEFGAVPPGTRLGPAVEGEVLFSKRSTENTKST

[5] = tested on: T. cruzi; assay: T. cruzi growth inhibition; type: cell-based, Trypanosoma cruzi; conditions: read-out: (E) T. cruzi EC50
[6] = tested on: T. brucei; assay: T. brucei growth inhibition; type: cell-based, Trypanosoma brucei; conditions: read-out: (D) T. brucei EC50
[7] = biological target: MetRS (C. parvum) (Cryptosporidium parvum, UniProt Q5CVN0); assay: MetRS (C. parvum) enzyme inhibition; type: biochemical
MetRS (C. parvum), sequence (Q5CVN0 entry or part of it): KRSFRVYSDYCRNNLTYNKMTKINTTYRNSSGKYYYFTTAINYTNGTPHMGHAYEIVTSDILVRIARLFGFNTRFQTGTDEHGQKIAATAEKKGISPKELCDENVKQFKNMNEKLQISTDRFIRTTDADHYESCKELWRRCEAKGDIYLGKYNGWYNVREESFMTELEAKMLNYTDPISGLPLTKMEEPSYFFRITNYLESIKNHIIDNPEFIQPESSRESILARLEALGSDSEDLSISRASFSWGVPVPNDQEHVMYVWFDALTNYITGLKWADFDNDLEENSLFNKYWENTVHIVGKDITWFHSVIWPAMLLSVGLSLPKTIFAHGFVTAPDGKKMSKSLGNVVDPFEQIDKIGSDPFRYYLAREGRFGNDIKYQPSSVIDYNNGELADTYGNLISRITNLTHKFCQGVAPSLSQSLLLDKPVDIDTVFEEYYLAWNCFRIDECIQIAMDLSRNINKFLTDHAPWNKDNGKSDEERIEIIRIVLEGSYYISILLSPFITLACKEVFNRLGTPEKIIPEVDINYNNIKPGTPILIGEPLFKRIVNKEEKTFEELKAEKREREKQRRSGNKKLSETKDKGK

[8] = tested on: C. parvum; assay: C. parvum growth inhibition; type: cell-based, Cryptosporidium parvum; conditions: Cryptosporidium parvum; read-out: (J) C. parvum EC50
[9] = read-out: (C) MetRS (C. parvum) IC50

SMILES	MIC ([1]; E. faecium ATCC 51559) [µg/mL]	(F) S. aureus (ATCC 29213) MIC ([2]; S. aureus ATCC 29213)	MIC ([2]; S. aureus ATCC 29213) [µg/mL]	MIC ([3]; MRSA ATCC33591) [µg/mL]	pIC50 [4]	pEC50 ([5]; Trypanosoma cruzi)	pEC50 ([6]; Trypanosoma brucei)	pIC50 [7, 9]	pEC50 [8]	pEC50 [6]	pEC50 [5]	(G) MRSA (ATCC33591) MIC ([3]; MRSA ATCC33591) [µg/mL]	(I) E. faecium (ATCC 51559) MIC ([1]; E. faecium ATCC 51559) [µg/mL]	MIC ([1]; ATCC51559|VRE, E. faecium ATCC 51559) [µg/mL]	MIC ([2]; ATCC29213|MSSA, S. aureus ATCC 29213) [µg/mL]	MIC ([3]; ATCC33591|MRSA, MRSA ATCC33591) [µg/mL]	MIC [1] [µg/mL]	MIC [2] [µg/mL]	MIC [3] [µg/mL]	pIC50 [7]
Clc1ccc(Cc2cn(Cc3nc4nc(Cl)ccc4[nH]3)cn2)c(Cl)c1 [Compound 2189, 1-({5-chloro-1H-imidazo[4,5-b]pyridin-2-yl}methyl)-4-[(2,4-dichlorophenyl)methyl]-1H-imidazole]					> 7.40	6.81	8.10		5.70								0.704 (≈ 1.79 µM)	0.676 (≈ 1.72 µM)	0.596 (≈ 1.52 µM)	> 7.40
NC(=O)Cn1c(C(=O)c2ccc(Cl)cc2Cl)cn(Cc2nc3ccc(Cl)nc3[nH]2)c1=O [Compound 2234, 2-[3-({5-chloro-1H-imidazo[4,5-b]pyridin-2-yl}methyl)-5-(2,4-dichlorobenzoyl)-2-oxo-2,3-dihydro-1H-imidazol-1-yl]acetamide]	1.06 (≈ 2.21 µM)			> 8		5.68	8.04	> 7.40	< 5.70	8.10										
COc1ccc(-c2cccc3c2CN(Cc2nc4c(C#N)c(Cl)ccc4[nH]2)C3)c(Cl)c1 [Compound 2229, 5-chlor0-2-((4-(2-chloro-4-methoxyphenyl)isoindolin-2-yl)methyl)-1H-benzo[d]imidazole-4-carbonitrile]	0.327 (≈ 0.728 µM)		0.926 (≈ 2.06 µM)	0.762 (≈ 1.7 µM)		6.19	7.04	7.07	5.70											
COc1ccc(-c2nccc3nn(Cc4nc5nc(Cl)ccc5[nH]4)cc23)c(Cl)c1 [Compound 2247, 2-({5-chloro-1H-imidazo[4,5-b]pyridin-2-yl}methyl)-4-(2-chloro-4-methoxyphenyl)-2H-pyrazolo[4,3-c]pyridine]	1.08 (≈ 2.54 µM)	1.43 µg/mL	1.18 (≈ 2.77 µM)	1.46 (≈ 3.43 µM)		5.78	6.70	6.66	< 5.70			1.58								
CCOC(=O)Nn1c(C(=O)c2ccc(Cl)cc2Cl)cn(Cc2nc3ccc(Cl)nc3[nH]2)c1=O [Compound 2244]		2.21 µg/mL				6.27		> 7.40	< 5.70				0.555	0.531 (≈ 1.04 µM)	1.66 (≈ 3.26 µM)	1.57 (≈ 3.08 µM)				
CCNC(=O)Cn1c(C(=O)c2ccc(Cl)cc2Cl)cn(Cc2nc3nc(Cl)ccc3[nH]2)c1=O [Compound 2227, 2-[3-({5-chloro-1H-imidazo[4,5-b]pyridin-2-yl}methyl)-5-(2,4-dichlorobenzoyl)-2-oxo-2,3-dihydro-1H-imidazol-1-yl]—N-ethylacetamide]	0.175 (≈ 0.345 µM)		1.07 (≈ 2.11 µM)	0.482 (≈ 0.949 µM)		6.09	> 9.04	> 7.40	< 5.70	8.83										

Further compounds by rising pEC50 ([5]; Trypanosoma cruzi), results first:

MIC ([1]; E. faecium ATCC 51559) [µg/mL]	(F) S. aureus (ATCC 29213) MIC ([2]; S. aureus ATCC 29213)	MIC ([2]; S. aureus ATCC 29213) [µg/mL]	MIC ([3]; MRSA ATCC33591) [µg/mL]	pIC50 [4]	pEC50 ([5]; Trypanosoma cruzi)	pEC50 ([6]; Trypanosoma brucei)	pIC50 [7, 9]	pEC50 [8]	pEC50 [6]	pEC50 [5]	(G) MRSA (ATCC33591) MIC ([3]; MRSA ATCC33591) [µg/mL]	(I) E. faecium (ATCC 51559) MIC ([1]; E. faecium ATCC 51559) [µg/mL]	MIC ([1]; ATCC51559|VRE, E. faecium ATCC 51559) [µg/mL]	MIC ([2]; ATCC29213|MSSA, S. aureus ATCC 29213) [µg/mL]	MIC ([3]; ATCC33591|MRSA, MRSA ATCC33591) [µg/mL]	SMILES	MIC [1] [µg/mL]	MIC [2] [µg/mL]	MIC [3] [µg/mL]	pIC50 [7]
0.167 (≈ 0.369 µM)	0.927 µg/mL	1.11 (≈ 2.45 µM)	0.293 (≈ 0.647 µM)	7.28	6.44	8.20	7.08	5.72								CCn1c(C(O)c2ccc(Cl)cc2Cl)cn(Cc2nc3nc(Cl)ccc3[nH]2)c1=O (stereo not shown) [Compound 2204, 1-({5-chloro-1H-imidazo[4,5-b]pyridin-2-yl}methyl)-4-[(2,4-dichlorophenyl)(hydroxy)methyl]-3-ethyl-2,3-dihydro-1H-imidazol-2-one]				
0.28 (≈ 0.589 µM)	1.53 µg/mL	2.4 (≈ 5.05 µM)	1.8 (≈ 3.79 µM)	> 7.40	6.53		> 7.40	< 5.70								COc1ccc(Cc2cn(Cc3nc4nc(Cl)ccc4[nH]3)c(=O)n2CC(C)(C)N)c(Cl)c1 [Compound 2208, 3-(2-amin0-2-methylpropyl)-1-({5-chloro-1H-imidazo[4,5-b]pyridin-2-yl}methyl)-4-[(2-chloro-4-methoxyphenyl)methyl]-2,3-dihydro-1H-imidazol-2-one]				
0.995 (≈ 2.34 µM)	1.37 µg/mL	1.07 (≈ 2.52 µM)	1.17 (≈ 2.75 µM)	7.28	6.76	7.63	> 7.40	< 5.70								COc1ccc(-c2cccc3c2CN(Cc2nc4nc(Cl)ccc4[nH]2)C3)c(Cl)c1 [Compound 2224, 5-chlor0-2-((4-(2-chloro-4-methoxyphenyl)isoindolin-2-yl)methyl)-1H-imidazo[4,5-b]pyridine]				
0.0839 (≈ 0.183 µM)	0.441, μg/ml and 0.450 μg/ml	0.652 (≈ 1.42 µM)	0.265 (≈ 0.577 µM)	> 7.40	6.96	7.91	7.19	< 5.70								COc1cc(Cl)c(-c2cnn3c2CN(Cc2nc4nc(Cl)ccc4[nH]2)CC3)cc1OC [Compound 2205, 5-chlor0-2-((3-(2-chloro-4,5-dimethoxyphenyl)-6,7-dihydropyrazolo[1,5-a]pyrazin-5(4H)-yl)methyl)-1H-imidazo[4,5-b]pyridine]				
0.166 (≈ 0.36 µM)		0.285 (≈ 0.619 µM)	0.298 (≈ 0.647 µM)	> 7.40	6.97	8.17	> 7.40	< 5.70								CCn1c(Cc2ccc(Cl)cc2Cl)cn(Cc2nc3ccc(Cl)c(C#N)c3[nH]2)c1=O [Compound 2210, 6-chlor0-2-({4-[(2,4-dichlorophenyl)methyl]-3-ethyl-2-oxo-2,3-dihydro-1H-imidazol-1-yl}methyl)-1H-1,3-benzodiazole-7-carbonitrile]				
0.272 (≈ 0.535 µM)		0.298 (≈ 0.586 µM)	0.26 (≈ 0.511 µM)	> 7.40	7.83	> 9.04	> 7.40	< 5.70	9.34	7.60						CCOC(=O)Cn1c(C(=O)c2ccc(Cl)cc2Cl)cn(Cc2nc3ccc(Cl)nc3[nH]2)c1=O [Compound 2215, ethyl 2-[3-({5-chloro-1H-imidazo[4,5-b]pyridin-2-yl}methyl)-5-(2,4-dichlorobenzoyl)-2-oxo-2,3-dihydro-1H-imidazol-1-yl]acetate]				

From US11584744B2 (UNIVERSITY OF WASHINGTON, priority 2017, dated 2023)
